Test results as given in PMC9456261 (International Journal of Molecular Sciences, 2022).
Read-outs that look alike come from different tables or passages of the source.

Assays:
Test in all cases: microbe, parasite or virus in culture
Type in all cases: cell-based
[1] = tested on: SARS-CoV-2 Beta (B.1.351)
[2] = tested on: SARS-CoV-2 Delta (B.1.617.2)
[3] = tested on: SARS-CoV-2 Omicron (B.1.1.529)
[4] = Severe acute respiratory syndrome coronavirus 2, Vero C1008, 72 h

| Molecule | IC50 [1] | IC50 [2] | IC50 [3] | IC50 [1, 4] | IC50 [2, 4] | IC50 [3, 4] |
| --- | --- | --- | --- | --- | --- | --- |
| 4-[5-[3-[5-(2-Bromophenoxy)pentyl]-2,6-dioxo-5-methyl-3,6-dihydropyrimidin-1(^2H)-yl]pentyloxy]benzoic acid [Compound 872] | > 50 µM | > 50 µM | 7.92 µM | – | – | – |
| O=C(O)c1ccc(OCCCCn2c(=O)ccn(Cc3cccc4ccccc34)c2=O)cc1 [Compound 601, 4-[4-[2,6-Dioxo-3-(naphthyl-1-methyl)-3,6-dihydropyrimidin-1(^2H)-yl]butoxy]benzoic acid] | – | – | – | 32.7 µM | 32.7 µM | 27.1 µM |
| O=c1ccn(Cc2c3ccccc3cc3ccccc23)c(=O)n1CCCCCCOc1ccc(Br)cc1 [Compound 611, 1-(Anthracen-9-ylmethyl)-3-[6-(4-bromophenoxy)hexyl]uracil] | – | – | – | > 50 µM | 13.3 µM | > 50 µM |
| O=C(O)c1ccc(OCCCCCn2c(=O)ccn(CCCCCOc3ccc(F)cc3)c2=O)cc1 [Compound 870, 4-[5-[3-[5-(4-Fluorophenoxy)pentyl]-2,6-dioxo-3,6-dihydropyrimidin-1(^2H)-yl]pentyloxy]benzoic acid] | – | – | – | 34.1 µM | 14.6 µM | 24.4 µM |
| O=C(O)c1ccc(OCCCCCn2c(=O)ccn(CCCCCOc3ccccc3Br)c2=O)cc1 [Compound 871, 4-[5-[3-[5-(2-Bromophenoxy)pentyl]-2,6-dioxo-3,6-dihydropyrimidin-1(^2H)-yl]pentyloxy]benzoic acid] | – | – | – | 27.3 µM | 26.6 µM | > 50 µM |
| O=C(O)c1ccc(OCCCCn2c(=O)ccn(CCCOc3ccc(Br)cc3)c2=O)cc1 [Compound 873, 4-[4-[3-[3-(4-Bromophenoxy)propyl]-2,6-dioxo-3,6-dihydropyrimidin-1(^2H)-yl]butoxy]benzoic acid] | – | – | – | 50 µM | > 50 µM | 28.2 µM |
| Cc1cc(C)cc(OCCCCCn2ccc(=O)n(CCCCCOc3ccc(C(=O)O)cc3)c2=O)c1 [Compound 874, 4-[5-[3-[5-(3,5-Dimethylphenoxy)pentyl]-2,6-dioxo-3,6-dihydropyrimidin-1(^2H)-yl]pentyloxy]benzoic acid] | – | – | – | 29.1 µM | 30.2 µM | > 50 µM |
| O=C(O)c1ccc(Cn2c(=O)ccn(CCCCCOc3ccc(Br)cc3)c2=O)cc1 [Compound 875] | – | – | – | 33.1 µM | 30.7 µM | 22.6 µM |
| O=C(O)c1ccc(OCCCCCn2c(=O)ccn(Cc3c4ccccc4cc4ccccc34)c2=O)cc1 [Compound 876] | – | – | – | 23.8 µM | 29.3 µM | 22.4 µM |
| O=C(O)c1ccc(OCCCCn2c(=O)ccn(Cc3ccc4ccccc4c3)c2=O)cc1 [Compound 1005, 4-[4-[2,6-Dioxo-3-(naphthyl-2-methyl)-3,6-dihydropyrimidin-1(^2H)-yl]butoxy]benzoic acid] | – | – | – | 15.5 µM | 27.8 µM | > 50 µM |
| O=C(O)c1ccc(OCCCCn2c(=O)ccn(Cc3ccc(Br)c4ccccc34)c2=O)cc1 [Compound 1006, 4-[4-[3-(4-Bromonaphthyl-1-methyl)-2,6-dioxo-3,6-dihydropyrimidin-1(2H)-yl]butoxy]benzoic acid] | – | – | – | > 50 µM | 27.4 µM | > 50 µM |
| O=C(O)c1ccc(OCCCn2c(=O)ccn(CCCCCCCCCCCCOc3ccc(Br)cc3)c2=O)cc1 [Compound 1007, 4-[3-[3-[12-(4-Bromophenoxy)dodecyl]-2,6-dioxo-3,6-dihydropyrimidin-1(^2H)-yl]propoxy]benzoic acid] | – | – | – | > 50 µM | > 50 µM | > 50 µM |
